Starred links: 1 amine or outer side, 2 acyl side, 3 side chain; linkers in the order of their positions; H or OH if unused. Non-standard residues stand in square brackets, D forms with d. Residues, ends and D or L forms follow the SMILES beside them. Groups on a side chain read outwards from the residue. *: point of attachment. Ethylenediamine = C(CN[*:2])N[*:1]; Hyp = O=C(O)[C@@H]1C[C@@H](O)CN1; Phg = N[C@H](C(=O)O)c1ccccc1; CO = O=C([*:1])[*:2]; Bn = c1ccc(C*)cc1
How the values were obtained:
[1] = test system: women with breast cancer undergoing ALND; details: compared to placebo, p = 0.035; ref [12]; cited from earlier work
Method: More recently, Gauthier et al. have reported the results of a phase 3, double-blind, randomized study using Lanreotide Autogel 90 mg LAR to reduce lymphorrhea volumes in the axillary drain during the first 4 postoperative days.

[2] = test system: sst2; design: method as in 2 sources, ref [14] = [14]; PMID 11980628; doi:10.1530/eje.0.1460707; 14 Bruns C , Lewis I , Briner U , Meno-Tetang G , Weckbecker G . SOM230: a novel somatostatin peptidomimetic with broad somatotropin release inhibiting factor (SRIF) receptor binding and a unique anti ||| ref [14] (a number printed in a supplementary file, which may have a reference list of its own: not looked up in the article's list); details: ref [14]; cited from earlier work
Description: The five somatostatin receptors (sst 1 to 5) are expressed in various organs under normal physiological conditions. Somatostatin analogs activate these receptors, which in turn reduce cell activity and inhibit hormone synthesis. Octreotide and lanreotide, which are currently used, have strong affinities for the sst2 receptor and moderate affinities, if any, for the other receptor types. […] Like natural somatostatin and known analogs, its pharmaceutical efficacy depends on its binding to somatostatin receptors. There are five of these (sst 1 to 5); they are expressed in various bodily tissues under normal physiological conditions. Somatostatin analogs activate these receptors, which in turn reduce cell activity and inhibits hormone synthesis. (7). Octreotide and lanreotide, which are currently used, have a strong affinity for the sst2 receptor and moderate affinity, if any, for the other types.

[3] = test system: sst4; design: method as in PMID 11980628; details: ref [14]; cited from earlier work
Description: Pasireotide is an injectable somatostatin analog. […] The five somatostatin receptors (sst 1 to 5) are expressed in various organs under normal physiological conditions. Somatostatin analogs activate these receptors, which in turn reduce cell activity and inhibit hormone synthesis. Octreotide and lanreotide, which are currently used, have strong affinities for the sst2 receptor and moderate affinities, if any, for the other receptor types.

[4] = test system: patients after axillary node dissection in breast cancer; design: method as in PMID 12648685; details: p = 0.0001, ref [10], cited from earlier work
[5] = test system: patients after axillary node dissection in breast cancer; design: method as in PMID 17214811; details: p = 0.0001, ref [11], cited from earlier work
[6] = test system: renal transplantation patients; design: method as in PMID 16757259; details: patients treated with octreotide; ref [22]; cited from earlier work
[7] = cited from earlier work
Method: Differences between the results reported by Carcoforo [10] and Mahmoud and our results could be partially explained. First, the clinical practices were different. In our practice, drains were removed before the seventh post-operative day, whereas in the studies by Carcoforo [10] and Mahmoud^11 the mean duration of drainage was between 7 and 25 days. Second, the other authors both used octreotide 0.1 mg three times a day subcutaneously for 5 [10] or 7 [11] days, starting on the first postoperative day. In our study, we chose a long-acting release formulation of pasireotide (pasir ... || The gradual release form must be injected intramuscularly prior to surgery. An effective plateau concentration is obtained after 10 days regardless of the selected dosage (20, 40, or 60 mg) (3).

[8] = test system: sst1; details: ref [14]; cited from earlier work
Description: (§1) The five somatostatin receptors (sst 1 to 5) are expressed in various organs under normal physiological conditions. Somatostatin analogs activate these receptors, which in turn reduce cell activity and inhibit hormone synthesis. Octreotide and lanreotide, which are currently used, have strong affinities for the sst2 receptor and moderate affinities, if any, for the other receptor types.

[9] = test system: female patients undergoing mastectomy with axillary lymph node dissection for breast cancer; test: Phase 2 randomised trial, primary outcome: absence of post-operative axillary symptomatic lymphocele; details: versus placebo group
Method: All female patients for whom mastectomy and ALND were indicated were eligible for the study, including patients who had received neo-adjuvant chemotherapy. Main exclusion criteria were related to diabetes, cardiac insufficiency, disorder of cardiac conduction or hepatic failure. […] This choice of these variables was decided because they could influence the rate of post-operative lymphocele and so created bias. Randomization was carried out by the Statistics Team at Hôpital Saint Louis in charge of the project (only one randomization list for both centers). […]
The postoperative visit was 28 ± 4 days following surgery (V5), and a routine lymphocele aspiration was warranted and considered positive if the aspirated volume exceeded 120 cc. Again, data on the number of repeated lymphocele aspirations and the volume were collected, and adverse events were recorded.
The primary motivation for this sequential Bayesian strategy were: (1) the uncertainty about the effect of the procedure, (2) the small sample and (3) it allows continuous monitoring of outcomes throughout the trial. […] Additionally, based on the subsequent distribution experimental group, early stopping criteria were calculated to allow early termination of the trial for inefficacy if there was substantial evidence that the estimated response rate was unacceptably low compared to the expected minimal response rate of 60%. […]

[10] = test system: female patients undergoing mastectomy with axillary lymph node dissection for breast cancer; test: Phase 2 trial, safety / adverse events; type: in vivo, human; details: treatment group; patient with insulin-dependent diabetes hospitalised for hyperglycaemia
Method: The screening was performed during the pre-surgical visit. At the baseline visit (V1) 7 to 10 days prior to surgery, patients signed the informed consent, and pasireotide or the placebo were injected. In addition, a blood sample for pharmacokinetic monitoring was taken. On the day of surgery or the day after surgery (V2), data concerning the operation (type of surgery, duration, intraoperative complications, type and number of drains) and recording of adverse events were performed. On the day of discharge (V3), the summary of the daily collection of postoperative data was completed (daily and total drainage volumes, dates on which drains were removed and overall duration of drainage, postoperative complications, whether aspiration of a symptomatic lymphocele was required, length of hospital stay and recording of adverse events).
A second blood sample for pharmacokinetic monitoring was taken during this visit.
Follow-up visits at 2 months (V6) allowed the recording of late adverse events.

[11] = test system: sst5; design: method as in PMID 11980628; details: ref [14]; cited from earlier work
Description: as §1

[12] = test system: sst3; design: method as in PMID 11980628; details: ref [14]; cited from earlier work
Description: as §1

[13] = test system: female patients undergoing mastectomy with axillary lymph node dissection for breast cancer; test: Phase 2 trial, secondary endpoints: post-operative course (drainage, aspirations, healing, hospital stay); type: in vivo, human
[14] = pasireotide LAR 40 and 60 mg, ref [21]

## lanreotide
[1]
  Lymphorrhea volume, patients who only underwent an axillary dissection: significantly reduced
[2]
  Affinity for the sst2 receptor, in words: strong

## Octreotide
[3]
  Affinity for sst4: none
[4]; subcutaneous octreotide in immediate postoperative period, untreated group 94.6 ml
  Daily drainage volume: 65.4 mL
[4]; untreated group 16.7 days
  Time of drain removal after surgery: 7.1 days
[5]; control 90%
  Need for postoperative aspiration of lymphoceles: 40%
[5]; control 145 ml
  Mean daily drainage volume: 104 mL
[5]; control 25 days
  Total duration of drainage: 12.7 days
[6]
  Duration of lymphatic leakage following transplantation: shorter duration
  Incidence of lymphocele formation after drain removal: lower incidence
[2]
  Affinity for the sst2 receptor, in words: strong

## NCCCC[C@@H]1NC(=O)[C@@H](Cc2c[nH]c3ccccc23)NC(=O)[C@H](c2ccccc2)NC(=O)[C@@H]2C[C@@H](OC(=O)NCCN)CN2C(=O)[C@H](Cc2ccccc2)NC(=O)[C@H](Cc2ccc(OCc3ccccc3)cc2)NC1=O [Pasireotide] (cyclo([Hyp]([CO-Ethylenediamine])[Phg][dW]KY(Bn)F))
[7]; gradual release form i.m., regardless of dosage (20, 40, or 60 mg), ref (3) Schmid et al AACE 2005
  Time to effective plateau concentration: 10 days
[7]; [14]
  Time of first concentration peak after administration: 1 days
  Time of second slow-release peak with maximum concentrations: ~20 days
[7]; pasireotide LAR, ref [21]
  Day from which the effect was obtained after injection: seventh
  Duration for which the effect remained: up to 30 days
[7]; patients with neuroendocrine tumors, ref [23]
  Residual concentration at day 28: 16.5 ng/mL
[3]
  Affinity for sst4: none
[8]
  Affinity for sst1 relative to octreotide: 30 times greater
[9]
  Decrease in symptomatic lymphocele development in treated patients: 12.2%
[10]
  Serious adverse events: one
[11]
  Affinity for sst5 relative to octreotide: 40 times greater
[12]
  Affinity for sst3 relative to octreotide: 5 times greater
[13]; Fig 3, Day 1
  Daily flow axillary drain: 50 mL
  Daily flow mastectomy drain: 52,5 ml
[13]; Fig 3, Day 2
  Daily flow axillary drain: 50 mL
  Daily flow mastectomy drain: 40 mL
[13]; Fig 3, Day 3
  Daily flow axillary drain: 65 mL
  Daily flow mastectomy drain: 38 mL
[13]; Fig 3, Day 4
  Daily flow axillary drain: 50 mL
  Daily flow mastectomy drain: 40 mL
[13]; Fig 3, Day 5
  Daily flow axillary drain: 75 mL
  Daily flow mastectomy drain: 41 mL
[13]; Fig 3, Day 6
  Daily flow axillary drain: 50 mL
  Daily flow mastectomy drain: 40 mL
[13]; Fig 3, Day 7
  Daily flow axillary drain: 35 mL
  Daily flow mastectomy drain: 30 mL
[13]; median [IQR]
  Length of time to onset of adjuvant chemotherapy: 54 [37.5,60] days
  Repeated lymphocele aspirations, total volume: 270 [135,415] ml
[13]; median [IQR], n = 42
  Duration of drainage, axillary drain: 3 [2,5] days
  Duration of drainage, mastectomy drain: 2.5 [1.75,4] days
  Length of the hospital stay: 5 [4,6] days
  Total flow, axillary drain: 165 [81,400.2] ml
  Total flow, mastectomy drain: 132.5 [55.5,226] ml
[13]; treatment group
  Patients who underwent systematic lymphocele aspiration on day 28: Twelve
